Bounds are passed on as bounds.

This assay concerns the target T1, recombinant human GST-SYK (Homo sapiens, UniProt P43405).
T1 construct: purchased Carna Biosciences 08-176
In words: Homogeneous Time-Resolved Fluorescence (HTRF) assay for the recombinant human Syk enzyme. It counts as biochemical. The conditions noted are these: HTRF assay, recombinant human GST-SYK; IC50 given as class symbols; read-out: rhSYK Activity. The gist of the method: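 Phosphorylation of a biotinylated Syk substrate peptide (250 nM) was run for 45 min at room temperature with 25 μM ATP and 5 mM Mg. It followed a 10-min preincubation of GST-hSYK ([…]) with compound in 15 mM Tris-HCl pH 7.5, 2 mM DTT. Product was detected by time-resolved fluorescence using a europium anti-phosphotyrosine antibody plus SA-APC in EDTA-containing quench buffer.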
For the compound `Cc1cc(Nc2nccc(C(F)(F)F)n2)cc(-c2ccc(N3CCC3C(=O)O)nc2)c1` (stereo not shown) [Example 7.82, 1-[5-(3-methyl-5-{[4-(trifluoromethyl)pyrimidin-2-yl]amino}phenyl)pyridin-2-yl]azetidine-2-carboxylic acid], the IC50 was below 100 nM. For `Cc1cc(Nc2nccc(C(F)(F)F)n2)cc(-c2ccc(N[C@H](Cc3ccccc3)C(=O)O)nc2)c1` [Example 7.96, N-[5-(3-methyl-5-{[4-(trifluoromethyl)pyrimidin-2-yl]amino}phenyl)pyridin-2-yl]-D-phenylalanine] the value was below 100 nM. Consider `Cc1cc(Nc2nccc(C(F)(F)F)n2)cc(-c2ccc(C(=O)NCCO)nc2)c1` [Example 16.5, N-(2-hydroxyethyl)-5-(3-methyl-5-{[4-(trifluoromethyl)pyrimidin-2-yl]amino}phenyl)pyridine-2-carboxamide], for which the IC50 is below 100 nM. Consider `Cc1cc(Nc2nccc(C(F)(F)F)n2)cc(-c2ccc(NCC(O)C(F)F)nc2)c1` (stereo not shown) [Example 7.17, 1,1-difluoro-3-{[5-(3-methyl-5-{[4-(trifluoromethyl)pyrimidin-2-yl]amino}phenyl)pyridin-2-yl]amino}propan-2-ol], for which the IC50 was below 100 nM. Regarding `Cc1cc(Nc2nccc(C(F)(F)F)n2)cc(-c2cncc(C(C)(C)O)c2)c1` [Example 9.71, 2-[5-(3-methyl-5-{[4-(trifluoromethyl)pyrimidin-2-yl]amino}phenyl)pyridin-3-yl]propan-2-ol], the IC50 is below 100 nM. For `Cc1cc(Nc2nccc(C(F)(F)F)n2)cc(-c2cncc(C3(O)CCN(C(N)=O)C3)c2)c1` (stereo not shown) [Example 10.2, 3-hydroxy-3-[5-(3-methyl-5-{[4-(trifluoromethyl)pyrimidin-2-yl]amino}phenyl)pyridin-3-yl]pyrrolidine-1-carboxamide] the value was below 100 nM. Turning to `Cc1cc(Nc2nccc(C(F)(F)F)n2)cc(-c2ccc(N3CCC[C@@H](C(=O)N4CCC[C@@H](C(=O)O)C4)C3)nc2)c1` [Example 7.149, (3R)-1-({(3R)-1-[5-(3-methyl-5-{[4-(trifluoromethyl)pyrimidin-2-yl]amino}phenyl)pyridin-2-yl]piperidin-3-yl}carbonyl)piperidine-3-carboxylic acid], the IC50 was below 100 nM. On to `Cc1cc(Nc2nccc(C(F)(F)F)n2)cc(-c2ccc(C(=O)N(C)CC(N)=O)nc2)c1` [Example 16.62, N-(2-amino-2-oxoethyl)-N-methyl-5-(3-methyl-5-{[4-(trifluoromethyl)pyrimidin-2-yl]amino}phenyl)pyridine-2-carboxamide], for which the IC50 was below 100 nM.

With `Cc1cc(Nc2nccc(C(F)(F)F)n2)cc(-c2cncc(CO)c2)c1` [Example 2.66, [5-(3-methyl-5-{[4-(trifluoromethyl)pyrimidin-2-yl]amino}phenyl)pyridin-3-yl]methanol], the IC50 was below 100 nM. In the case of `Cc1cc(Nc2nccc(C(F)(F)F)n2)cc(-c2ccc(C(=O)N3CC[S+]([O-])CC3)nc2)c1` [Example 16.49, N-(3-methyl-5-{6-[(1-oxidothiomorpholin-4-yl)carbonyl]pyridin-3-yl}phenyl)-4-(trifluoromethyl)pyrimidin-2-amine], the IC50 was below 100 nM.

Take `CC1(C)CC(O)(c2ccc(-c3cc(F)cc(Nc4nccc(C(F)(F)F)n4)c3)cn2)CCC1C(=O)O` (single isomer, unassigned) [Example 9.4, (1S,4R or 1R,4S)-4-[5-(3-fluoro-5-{[4-(trifluoromethyl)pyrimidin-2-yl]amino}phenyl)pyridin-2-yl]-4-hydroxy-2,2-dimethylcyclohexanecarboxylic acid]: the IC50 was below 100 nM. For `COC(=O)C1CCC(O)(c2ccc(-c3cc(C)cc(Nc4nccc(C(F)(F)F)n4)c3)cn2)CC1(C)C` (stereo not shown) [Example 9.41, methyl 4-hydroxy-2,2-dimethyl-4-[5-(3-methyl-5-{[4-(trifluoromethyl)pyrimidin-2-yl]amino}phenyl)pyridin-2-yl]cyclohexanecarboxylate] the value was 100 to 1000 nM; for `CCOC(=O)C1CCC(O)(c2ccc(-c3cc(C)cc(Nc4nccc(C)n4)c3)cn2)CC1(C)C` (stereo not shown) [Example 9.40, ethyl 4-hydroxy-2,2-dimethyl-4-(5-{3-methyl-5-[(4-methylpyrimidin-2-yl)amino]phenyl}pyridin-2-yl)cyclohexanecarboxylate], 100 to 1000 nM; for `Cc1cc(Nc2nccc(C(F)(F)F)n2)cc(-c2ccnc(N3CCN(S(C)(=O)=O)CC3)c2)c1` [Example 15.63, N-(3-methyl-5-{2-[4-(methylsulfonyl)piperazin-1-yl]pyridin-4-yl}phenyl)-4-(trifluoromethyl)pyrimidin-2-amine], 100 to 1000 nM. For `Cc1cc(Nc2nccc(C(F)(F)F)n2)cc(-c2ccnc(C3(O)CCC(C(=O)O)C(C)(C)C3)c2)c1` (single isomer, unassigned) [Example 9.59, (1S,4R or 1R,4S)-4-hydroxy-2,2-dimethyl-4-[4-(3-methyl-5-{[4-(trifluoromethyl)pyrimidin-2-yl]amino}phenyl)pyridin-2-yl]cyclohexanecarboxylic acid] the value was below 100 nM; for `Cc1cc(Nc2nccc(C(F)(F)F)n2)cc(-c2ccnc(N3CCCC4(CCNC4=O)C3)c2)c1` (stereo not shown) [Example 15.29, 7-[4-(3-methyl-5-{[4-(trifluoromethyl)pyrimidin-2-yl]amino}phenyl)pyridin-2-yl]-2,7-diazaspiro[4.5]decan-1-one], below 100 nM; for `Cc1cc(Nc2nccc(C(F)(F)F)n2)cc(-c2ccnc(N3CCCC34CCNC4=O)c2)c1` (stereo not shown) [Example 15.36, 1-[4-(3-methyl-5-{[4-(trifluoromethyl)pyrimidin-2-yl]amino}phenyl)pyridin-2-yl]-1,7-diazaspiro[4.4]nonan-6-one], 100 to 1000 nM. For `CC(=O)N1CCN(c2cc(-c3cc(C)cc(Nc4nccc(C(F)(F)F)n4)c3)ccn2)CC1` [Example 15.23, 1-{4-[4-(3-Methyl-5-{[4-(trifluoromethyl)pyrimidin-2-yl]amino}phenyl)pyridin-2-yl]piperazin-1-yl}ethanone] the value was below 100 nM; for `Cc1cc(Nc2nccc(C(F)(F)F)n2)cc(-c2ccc([C@]3(O)CC[C@H](C(=O)O)CC3)nc2)c1` [Example 9.35, trans 4-hydroxy-4-[5-(3-methyl-5-{[4-(trifluoromethyl)pyrimidin-2-yl]amino}phenyl)pyridin-2-yl]cyclohexanecarboxylic acid], below 100 nM. For `FC(F)(F)c1ccnc(Nc2cc(-c3cccc(N4CCOCC4)n3)cc(N3CCOCC3)c2)n1` [Example 1.3, N-[3-morpholin-4-yl-5-(6-morpholin-4-ylpyridin-2-yl)phenyl]-4-(trifluoromethyl)pyrimidin-2-amine], the IC50 was below 100 nM.

Take `Cc1cc(Nc2nccc(C(F)(F)F)n2)cc(-c2ccnc(NCCc3cnccn3)c2)c1` [Example 15.33, N-(3-methyl-5-{2-[(2-pyrazin-2-ylethyl)amino]pyridin-4-yl}phenyl)-4-(trifluoromethyl)pyrimidin-2-amine]: the IC50 lay in the range of 100 to 1000 nM. Consider `Cc1cc(Nc2nccc(C(F)(F)F)n2)cc(-c2ccc(C(=O)N3CCNC(=O)CC3)nc2)c1` [Example 16.19, 1-{[5-(3-methyl-5-{[4-(trifluoromethyl)pyrimidin-2-yl]amino}phenyl)pyridin-2-yl]carbonyl}-1,4-diazepan-5-one], for which the IC50 was below 100 nM.

The values are drawn from patent US9376418B2, “Substituted pyridine spleen tyrosine kinase (SYK) inhibitors” (Merck Sharp & Dohme Corp., priority 2012, dated 2016).
